IC50 data for 31 compounds are collected here from patent US20250215004A1, “AZOLO COMPOUNDS FOR TREATMENT OF FIBROTIC DISEASES” (GEORG-AUGUST-UNIVERSITÄT GÖTTINGEN STIFTUNG ÖFFENTLICHEN …, priority 2022, published 2025).

Molecules are shown by their SMILES. Values after ≈ are worked out from the molar mass of the structure shown. Some results are limits rather than exact numbers.

Assay [1] has as its system TK173 cells. Kind of assay: Collagen I Western blot in TGFβ1-treated TK173 fibroblasts. It is filed as cell-based. To be noted: Homo sapiens, Fibroblast, 10 ng/ml TGFβ1 for 5 days, then compound 48 hours, Collagen I immunoblot. On the procedure:
(§1) Compound reconstitution. Prior to treatment, each compound was used from a stock solution of a concentration of 10 mg/ml in DMSO. Final concentration of DMSO in cell cultures was kept below 0.1%.
(§2) Cell culture and treatment. The human renal fibroblast cell line TK173 was derived from a normal human kidney (laboratory stock; (G. A. Müller et al., Exp. Nephrol. 1995, 3, 127). Cell line stabilization for research purposes was approved by the Ethics Committee of the Georg-August-University. TK173 cells were cultured in Dulbecco's modified Eagle's medium (DMEM, Gibco, USA) supplemented with 10% fetal bovine serum (FBS, Gibco, Germany) and 1% penicillin-streptomycin (PS, Gibco, USA) at 37° C. in a humidified atmosphere with 5% CO2. Cell line was routinely tested for mycoplasma contamination. To investigate the effect of compounds after profibrotic agent treatment, 3×10^4 TK173 cells were seeded in one well of a 6-well culture plate in normal medium. After 24 hours, the culture medium was removed, and the cells were incubated for a further 24 hours in FBS free culture medium (starvation medium). Then, 10 ng/ml TGFβ1 (R&D Systems, USA) was added to the starvation medium, and the culture medium was changed with fresh TGFβ1 in every alternate day. After 5 days of TGFβ1 treatment, cell culture medium was replaced by starvation medium with compounds at different concentration for following 48 hours of incubation.
Protein Extraction. Total proteins were extracted from the cultured cells by NP40 Cell Lysis Buffer (Invitrogen, USA) containing phosphatase (Sigma-Aldrich, USA) and protease inhibitor (Roche, Switzerland) followed by sonication and centrifugation at 12,000×g for 20 minutes at 4° C. to clear the lysates. The supernatant was collected and measured using Pierce BCA Protein Assay Kit (ThermoFisher Scientific) by PHOmo Microplate Reader (Autobio, China). The samples were stored at −80° C. prior to use.
Immunoblotting. Western blot analysis, 10 μg of extracted proteins were diluted in NuPAGE LDS Samples Buffer (Novex Life technologies, USA) containing 5% 2-Mercaptoethanol (Sigma-Aldrich, Germany), and following denatured for 5 minutes at 95° C. The proteins were resolved by 4-12% NuPAGE SDS-PAGE (Novex Life technologies, USA). Blots were often stripped with Thermo Scientific Restore PLUS Western Blot Stripping Buffer (Thermo Fisher Scientific, Germany) for reprobing. The following antibodies were used for immunoblotting: Collagen I (1:1000; ab233080, Abcam, USA), alpha smooth muscle Actin (1:1000; ab124964, Abcam, USA), GAPDH (1:8000; sc-32233, Santa Cruz, USA). Proteins were detected by LumiGLO chemiluminescent system (Cell Signaling Technology, USA) with appropriate secondary antibodies: anti-mouse HRP (1:2500; Dako, Denmark) and anti-rabbit HRP (1:2500; 7074, Cell Signaling Technology, USA) using ChemiDoc MP Imaging System (Bio-Rad, USA).

The subject of assay [2] is TK173 cells. The assay is described as follows: ELISA to detect secreted type I collagen (Pro-Collagen I alpha 1) in conditioned media of TGFβ1-treated TK173 fibroblasts. The assay is classed as cell-based. To be noted: Homo sapiens, Fibroblast, 10 ng/ml TGFβ1 for 5 days, then compound 48 hours, Pro-Collagen I alpha 1 ELISA of conditioned media, read-out: IC50, concentration where the TGFβ-stimulated collagen secretion is attenuated by 50%. On the procedure:
as §1, §2
Conditioned media containing the secretome of TK173 fibroblast were harvested after 48 hours of compound treatments. Secretion of pro-Collagen 1 was assessed with Human Pro-Collagen I alpha 1 DuoSet ELISA (R&D Systems, USA). To prepare the ELISA plate, Human Pro-Collagen I α1 Capture Antibody was diluted in ELISA Plate-coating Buffer at 4 μg/ml working concentration. 100 μl of diluted Capture Antibody was added to the 96-well microplates and incubated overnight at room temperature. After three times washing with Wash Buffer, microplates were blocked by adding 300 μl of Reagent Diluent for 1 hour at room temperature. To proceed the ELISA, Human Pro-Collagen I α1 Standards were diluted in Reagent Diluent (range between 31.3 pg/ml-2000 pg/ml) and 100 μl of standards or conditioned mediums were add into designated wells. Microplates were incubated at room temperature for 2 hours. Human Pro-Collagen I α1 Detection Antibody was prepared in Reagent Diluent at 100 ng/ml working concentration and 100 μl of diluted Detection Antibody was applied for 2 hours at room temperature after extensive washing. Then, working solution of Streptavidin-HRP with Reagent Diluent was prepared by diluting 1:40 and added into each well. After 20 minutes at room temperature incubation, microplates were washed and applied with 100 μl of Substrate Solution for 20 minutes followed by Stop Solution after washing. Finally, signals were measured at 450 nm absorbance by PHOmo Microplate Reader (Autobio, China). The amount of pro-collagen 1 antibody fusion was quantified by extrapolating the signal into a linear range of a pro-collagen 1 standard curve. Screening compounds were typically tested in at concentrations between 5 and 200 μg/ml. The IC50 values observed by the dose response curves for each compound (n=4-6, two independent experiments) were obtained by nonlinear regression analysis using Prism 9 software (GraphPad, La Jolla, USA) and represent the concentration where the TGFβ-stimulated collagen secretion is attenuated by 50%.
(ELISA stands for enzyme-linked immunosorbent assay.)

In assay [1], `CNc1nn2nnnc2c2ncccc12` (single isomer, unassigned) [Compound 27, N-methylpyrido[2,3-d]tetrazolo[1,5-b]pyridazin-6-amine] came in with an IC50 of less than 30 µg/mL.
In the case of `Cc1nn2nnnc2c2ccccc12` [Compound 2, 6-Methyl-tetrazolo[5,1-a]phthalazine], the IC50 in assay [2] is 58 µg/mL (≈ 313 µM).
Turning to `Cc1nnc2c3ccccc3c(C#N)nn12` [Compound 6, 3-Methyl-1,2,4-triazolo[3,4-a]phthalazine-6-carbonitrile], the figures for the IC50 in assay [2] and in assay [1] were 61 µg/mL (≈ 292 µM) and less than 5 µg/mL, respectively.
`Cc1nnc2c3ccccc3c(NCCO)nn12` [Compound 7, 2-[(3-methyl-1,2,4-triazolo[3,4-a]phthalazin-6-yl)amino]-ethanol]: the IC50 in assay [2] was found to be 32 µg/mL (≈ 132 µM).
`COc1cc2cnn3c(C)nnc3c2cc1OC` [Compound 9, 8,9-Dimethoxy-3-methyl-1,2,4-triazolo[3,4-a]phthalazine]: the IC50 in assay [2] was 10 µg/mL (≈ 40.9 µM); in assay [1] it was less than 1 µg/mL.
`FC(F)(F)c1nnc2c3ccccc3cnn12` [Compound 10, 3-Trifluoromethyl-1,2,4-Triazolo[3,4-a]phthalazine]: in assay [2], the IC50 worked out at 93 µg/mL (≈ 390 µM).
On the same count and under the same terms, as for `OCc1nnc2c3ccccc3cnn12` [Compound 13, 1,2,4-Triazolo[3,4-a]phthalazin-3-yl-methanol], the figure is 87 µg/mL (≈ 435 µM).
`CCc1nnc2c3ccccc3cnn12` [Compound 14, 3-Ethyl-1,2,4-triazolo[3,4-a]phthalazine] returned an IC50 in assay [1] of less than 30 µg/mL.
Consider `c1ccc2c(c1)cnn1cnnc21` [Compound 15, 1,2,4-Triazolo[3,4-a]phthalazine], for which the IC50 in assay [2] is 105 µg/mL (≈ 617 µM); in assay [1] it was less than 40 µg/mL.
The like results for `c1cc2c(cnn3nnnc23)s1` [Compound 35, Tetrazolo[1,5-b]thieno[3,2-d]pyridazine] were, in that order, 30 µg/mL (≈ 169 µM) and less than 40 µg/mL.
In the case of `Cc1nnc2c3cscc3c(Cl)nn12` [Compound 38, 6-chloro-3-methylthieno[3,4-d][1,2,4]triazolo[4,3-b]pyridazine], the IC50 in assay [2] is less than 80 µg/mL.
In the case of `Cc1nnc2c3cscc3cnn12` [Compound 39, 3-methylthieno[3,4-d][1,2,4]triazolo[4,3-b]pyridazine], the IC50 in assay [2] was less than 80 µg/mL.
Regarding `c1nn2nnnc2c2cscc12` [Compound 41, Tetrazolo[1,5-b]thieno[3,4-d]pyridazine], the IC50 in assay [2] was less than 60 µg/mL.
Still for that read-out and setting: under `Cc1nnc2c3c(Cl)cccc3cnn12` [Compound 45, 10-chloro-3-methyl-[1,2,4]triazolo[3,4-a]phthalazine] stands 20 µg/mL (≈ 91.5 µM); under `Clc1cccc2cnn3nnnc3c12` [Compound 47a, 10-chlorotetrazolo[5,1-a]phthalazine], less than 5 µg/mL.
For `Cc1nnc2c3cc(Cl)ccc3cnn12` [Compound 49a, 9-chloro-3-methyl-[1,2,4]triazolo[3,4-a]phthalazine], the IC50 in assay [2] was less than 30 µg/mL; in assay [1], less than 50 µg/mL.
As to `Cc1nnc2c3ccc(Cl)cc3cnn12` [Compound 49b, 8-chloro-3-methyl-[1,2,4]triazolo[3,4-a]phthalazine], in assay [2], the IC50 was 30 µg/mL (≈ 137 µM).
Consider `Clc1ccc2cnn3nnnc3c2c1` [Compound 51a, 9-chlorotetrazolo[5,1-a]phthalazine], for which the IC50 in assay [1] is not above 40 µg/mL.
As for `Cc1nnc2c3cc(Cl)c(Cl)cc3cnn12` [Compound 53, 8,9-Dichloro-3-methyl-[1,2,4]triazolo[3,4-a]phthalazine], the IC50 in assay [2] was less than 20 µg/mL; in assay [1], less than 60 µg/mL.
As to `Clc1cc2cnn3nnnc3c2cc1Cl` [Compound 55, 8,9-Dichlorotetrazolo[5,1-a]phthalazine], the IC50 in assay [2] was less than 10 µg/mL; in assay [1], less than 20 µg/mL.
For `Fc1cccc2cnn3nnnc3c12` [Compound 59a, 10-Fluorotetrazolo[5,1-a]phthalazine], the IC50 in assay [2] is less than 20 µg/mL.
Still for that read-out and setting: under `Fc1cccc2c1cnn1nnnc21` [Compound 59b, 7-fluorotetrazolo[5,1-a]phthalazine] stands less than 5 µg/mL.
Regarding `Cc1nnc2c3cc(F)ccc3cnn12` [Compound 61a, 9-Fluoro-3-methyl-[1,2,4]triazolo[3,4-a]phthalazine], the IC50 in assay [2] was 530 µg/mL (≈ 2620 µM); in assay [1] it was less than 60 µg/mL.
`Cc1nnc2c3ccc(F)cc3cnn12` [Compound 61b, 8-fluoro-3-methyl-[1,2,4]triazolo[3,4-a]phthalazine]: the IC50 was less than 30 µg/mL in assay [2] and less than 80 µg/mL in assay [1].
`Fc1ccc2cnn3nnnc3c2c1` [Compound 63a, 9-Fluorotetrazolo[5,1-a]phthalazine]: the values for the IC50 in assay [2] and in assay [1] were less than 30 µg/mL and less than 70 µg/mL, respectively.
On the same counts, the results for `Fc1ccc2c(cnn3nnnc23)c1` [Compound 63b, 8-fluorotetrazolo[5,1-a]phthalazine] are less than 50 µg/mL and less than 30 µg/mL.
The like results for `Cc1nnc2c3cc(F)c(F)cc3cnn12` [Compound 65, 8,9-difluoro-3-methyl-[1,2,4]triazolo[3,4-a]phthalazine] were, in that order, less than 50 µg/mL and less than 50 µg/mL.
With `Fc1cc2cnn3nnnc3c2cc1F` [Compound 67, 8,9-difluorotetrazolo[5,1-a]phthalazine], the IC50 in assay [2] is less than 3 µg/mL.
`COc1ccc2cnn3c(C)nnc3c2c1` [Compound 69a, 9-Methoxy-3-methyl-[1,2,4]triazolo[3,4-a]phthalazine]: the IC50 in assay [2] and in assay [1] was less than 30 µg/mL in each case.
For the compound `COc1ccc2c(cnn3c(C)nnc23)c1` [Compound 69b, 8-methoxy-3-methyl-[1,2,4]triazolo[3,4-a]phthalazine], the IC50 in assay [2] was less than 30 µg/mL; in assay [1] it was less than 80 µg/mL.
As to `CC(C)Oc1nn2nnnc2c2c(Cl)cccc12` [Compound 72, 10-Chloro-6-isopropoxytetrazolo[5,1-a]phthalazine], the IC50 in assay [2] and in assay [1] was less than 5 µg/mL throughout.
